Key:
Type in all cases: in vivo, human
[1] = system: stage IV Cholangiocarcinoma and metastatic lymphadenopathy; test: Treatment of stage IV cholangiocarcinoma and metastatic lymphadenopathy patient with Varlitinib and cisplatin/5FU; settings: person, first line, 300 mg BID Varlitinib combined with Cis/5-FU
Procedure: Example 5 Treatment of Stage IV Cholangiocarcinoma and Metastatic Lymphadenopathy with Varlitinib 400 mg Bi-Daily Orally and Cisplatin/5FU Combination Chemotherapy A person with stage IV Cholangiocarcinoma and metastatic lymphadenopathy diagnosed in January 2016, no prior surgery or treatment was give first line treatment of 300 mg BID Varlitinib combined with Cis/5-FU, 28-day cycle.

gastric cancer = test: Treatment of gastric cancer patients with Varlitinib 400 mg bi-daily and cisplatin/capecitabine chemotherapy; settings: for tolerability / dose limiting toxicity: 400 mg bi-daily with cisplatin and capecitabine; for dose limiting toxicity: first two treatment cycles
Procedure: Example 1 Treatment of Gastric Cancer with Valitinib 400 mg Bi-Daily Orally and Cisplatin/Capecitabine Combination Chemotherapy
person one with Her2 positive (3+) stage IV gastric cancer had progressive disease in the form of 2 target lesions following: • first line treatment with cisplatin and Xeloda® (capecitabine)—4 cycles, • second line treatment with the experimental drug TDM1 (an antibody drug conjugate comprising Herceptin®)—9 cycles, • third line treatment with experimental drug LJM716 (a Her3 monoclonal antibody) and Herceptin®.
After treatment cycle 4 with ASLAN001 400 mg bi-daily, cisplatin and capecitabine, see FIG. 1. […] The cisplatin and capecitabine regime was cisplatin 80 mg/m^2 IV infusion and capecitabine 1000 mg/m^2 orally twice daily for 14 days every 3 weeks.
person two with gastric cancer (4 target lesions) was given first line treatment of Valitinib 400 mg bi-daily, cisplatin and capecitabine. […] The cisplatin and capecitabine regime was cisplatin 80 mg/m^2 IV infusion and capecitabine 1000 mg/m^2 orally twice daily for 14 days every 3 weeks.

[2] = system: intrahepatic bile duct cholangiocarcinoma; test: Treatment of intrahepatic bile duct cholangiocarcinoma patient with Varlitinib and FOLFOX; settings: person, progressive on gemcitabine and cisplatin; 9 cycles Varlitinib 400 mg reduced to 300 mg BID and FOLFOX, then 7 cycles monotherapy
Procedure: Example 6 Treatment of the Intrahepatic Bile Duct Cholangiocarcinoma with 300 mg Valitinib and FOLFOX A person diagnosed in 2013 with intrahepatic bile duct cholangiocarcinoma, had received surgery in the form of left hemihepatectomy in 15 Jul. 2013. Prior therapies were gemcitabine and cisplatin 14 Aug. 2013 with last dose 8 Jan. 2014 and repeated between 13 May 2015 and 1 Jul. 2015. With this treatment the status was progressive disease. The patient was give 9 cycles combination Varlitinib 400 mg reduced to 300 mg BID and FOLFOX. This was followed with 7 cycles of Valitinib monotherapy.

[3] = system: gastric tumours co-expressing EGFR and HER2 or HER2 amplified; test: Phase I monotherapy trial in gastric cancer patients, tumour biopsies analysed by immunohistochemistry; settings: monotherapy 500 mg orally BID for 28 days, 23 patients; biopsies before and after treatment
Procedure: (R)—N4-[3-Chloro-4-(thiazol-2-ylmethoxy)-phenyl]-N6-(4-methyl-4,5,-dihydro-oxazol-2-yl)-quinazoline-4,6-diamine (Varlitinib Example 52 disclosed in WO2005/016346), is a small-molecule pan-HER inhibitor. It has been tested as a monotherapy in phase I clinical trials of gastric cancer patients. 23 patients, who had previously failed on one or more rounds of chemotherapy, and where eligible for trastuzumab, each received 500 mg of Varlitinib orally twice daily (BID) as monotherapy for 28 days. Tumour biopsies taken before and after treatment were analysed using immunohistochemistry.

tumour = test: Clinical data summary as of June 2016, Varlitinib combination arms
Source text: As of June 2016 the following clinical data summary: […]

[4] = system: stage IV cholangiocarcinoma; test: Treatment of cholangiocarcinoma patients with Varlitinib bi-daily and cisplatin/capecitabine chemotherapy; settings: person
Procedure: Example 2 Treatment of Cholangiocarcinoma with Varlitinib 400 mg Bi-Daily Orally and Cisplatin/Capecitabine Combination Chemotherapy A person with stage IV cholangiocarcinoma (3 lesions) had progressive disease following treatment with: • radiotherapy, and • gemcitabine (Gemzar®) and cisplatin—6 months. […] The cisplatin and capecitabine regime was cisplatin 80 mg/m^2 IV infusion and capecitabine 1000 mg/m^2 orally twice daily for 14 days every 3 weeks. Example 3 Treatment of Cholangiocarcinoma with Varlitinib 500 mg Bi-Daily Orally and Cisplatin/Capecitabine Combination Chemotherapy A person with stage IV cholangiocarcinoma had progressive disease following treatment with radiotherapy and bi-weekly 5-FU. […] The cisplatin and capecitabine regime was cisplatin 80 mg/m^2 IV infusion and capecitabine 1000 mg/m^2 orally twice daily for 14 days every 3 weeks.

[5] = system: stage IV sigmoid colorectal cancer; test: Treatment of stage IV sigmoid colorectal cancer patient with Varlitinib 300 mg BID and oxaliplatin/capecitabine; settings: person, stage IV sigmoid colorectal cancer with metastasis, 300 mg bi-daily
Procedure: Example 4 Treatment of Stage IV Sigmoid Coloreactal Cancer with Varlitinib 300 mg BID Oxaliplatin/Capecitabine
A person with stage IV sigmoid colorectal cancer with metastasis to liver, lungs and lymph node.
The prior treatments included: • Anterior resection with right hemi-hepatetomy and cholecystecomy • XELOX (PD), XELIRI (PR), Irrinotecan & Cetuximab (SD) • Xeloda and Avastin (SD), Bayer PTEFb-CDK9 inhibitor (PD)
The treatment per 3 weeks cycle was 300 mg ASLAN001 orally bi-daily, oxaliplatin 130 mg/m^2 IV infusion (Day 1) and capecitabine 850 mg/m^2 (Day 1-14) until Cycle 6, then from Cycle 7+ onwards, Varlitinib 300 mg b-daily as monotherapy per 4 week cycle.

bladder cancer = test: Treatment of bladder cancer patient with 300 mg Valitinib and FOLFOX; settings: person
Procedure: Example 7 Treatment of the Bladder Cancer with 300 mg Valitinib and FOLFOX A person was diagnosed with bladder cancer 2014. They received radical cystoprostatetomy and prior therapy with Cisplatin and radiotherapy (pelvis) on 20 Feb. 2014; gemcitabline and cisplatin on 10 Apr. 2015 with last dose on 8 May 2015. The patient received 9 cycles of 300 mg Valitinib BID and FOLFOX and 5 cycles of Varlitinib 300 mg monotherapy. The Valitinib in the combination therapy interruption from 21 to 27 Sep. 2015; 21 Oct. to 23 Oct.

[6] = 9 cycles 300 mg BID and FOLFOX, then 5 cycles 300 mg monotherapy

## C[C@@H]1COC(Nc2ccc3ncnc(Nc4ccc(OCc5nccs5)c(Cl)c4)c3c2)=N1 [Varlitinib, (R)—N4-[3-Chloro-4-(thiazol-2-ylmethoxy)-phenyl]-N6-(4-methyl-4,5,-dihydro-oxazol-2-yl)-quinazoline-4,6-diamine]
[1]
  current disease status: stable disease
[1]; 28-day cycle, 5 Mar. 2016
  tumor reduction at first response (C2): 16%
[1]; 28-day cycle, 17 May 2016
  tumor reduction at last response (C4): 13%
Gastric cancer; person one, Her2 positive (3+) stage IV gastric cancer, progressive after three prior lines, Varlitinib 400 mg bi-daily, cisplatin and capecitabine
  response after treatment cycle 4: 29%
Gastric cancer; person one, gastric cancer
  tolerability: well tolerated
  dose limiting toxicity: No dose limiting toxicity was observed
Gastric cancer; person one, stage IV gastric cancer, after cycle 4 of Varlitinib 400 mg bi-daily, cisplatin and capecitabine
  disease status category: stable disease
Gastric cancer; person two, gastric cancer (4 target lesions), first line, 400 mg bi-daily, cisplatin and capecitabine
  response after cycle 4: 41%
Gastric cancer; person two, gastric cancer
  tolerability: well tolerated
  dose limiting toxicity: No dose limiting toxicity was observed
Gastric cancer; person two, gastric cancer, due to development of a new bone lesion
  disease status designation: progression disease
[2]
  patient status: partial response
[3]
  signs of clinical activity: cell survival and proliferation: reduction in cell survival and cell proliferation
  signs of clinical activity: signalling pathways: downregulation of signalling pathways responsible for cell proliferation
tumour; Combo with cis/5-FU, 300 mg Varlitinib, 6 patients
  Best response (% change): −21%
tumour; Combo with cis/5-FU, 400 mg Varlitinib, 7 patients
  Best response (% change): −47%
tumour; Combo with cis/cap, 400 mg Varlitinib, 6 patients
  Best response (% change): −87%
tumour; Combo with cis/cap, 500 mg Varlitinib, 4 patients
  Best response (% change): −4%
[4]; cholangiocarcinoma, 400 mg bi-daily with cisplatin and capecitabine
  tolerability: well tolerated
[4]; cholangiocarcinoma, first two treatment cycles, 400 mg bi-daily with cisplatin and capecitabine
  dose limiting toxicity: No dose limiting toxicity was observed
[4]; stage IV cholangiocarcinoma, progressive after radiotherapy and 5-FU, Varlitinib orally 500 mg bi-daily, cisplatin and capecitabine
  response after treatment cycle 2: 4%
[5]
  response after 2 cycles (figure): 335
  response category after 2 cycles: partial response
Bladder cancer; 300 mg BID and FOLFOX combination therapy
  adverse event leading to treatment interruption: G2 weight loss
Bladder cancer; [6]
  best % tumour change: −4%
  patient status: stable disease

Source: patent US10357494B2, “Combination therapy comprising varlitinib and an anticancer agent” (ASLAN Pharmaceuticals PTE LTD, priority 2015, dated 2019)
